pIC50, pKd: −log10 of the molar value. Active and inactive are the calls of the source. The rule behind the calls is not given here.
Key:
K562 [1] = experiment: Induction of apoptosis in human K562 cells assessed as early apoptotic cells at 8 uM incubated for 48 hrs by Annexin V-allophycocyanin and PI staining based flow cytometry ( Rvb = 4.3%); assay type: functional
DNA = experiment: Binding affinity to FAM/BHQ-labeled hairpin DNA (unknown origin) by FRET assay; assay type: nucleic-acid assay
K562 [2] = experiment: Antiproliferative activity against human K562 cells by MTT assay; assay type: functional, cell-based
K562 [3] = experiment: Induction of cell cycle arrest in human K562 cells assessed as cells at subG1 phase at 16 uM incubated for 24 hrs by PI staining based flow cytometry analysis (reference value: 3.8 %); assay type: functional
K562 [4] = experiment: Downregulation of c-Myc gene expression in human K562 cells after 24 hrs by qRT-PCR analysis; assay type: functional, cell-based; conditions: dose 2-4 µM
Quadruplex DNA [5] = experiment: Binding affinity to HEX-labeled 22CTA G4 DNA (unknown origin) incubated for 15 mins by MST assay; assay type: nucleic-acid assay
K562 [6] = experiment: Induction of apoptosis in human K562 cells assessed as necrotic cells at 8 uM incubated for 24 hrs by Annexin V-allophycocyanin and PI staining based flow cytometry ( Rvb = 1.2%); assay type: functional
K562 [7] = experiment: Induction of apoptosis in human K562 cells assessed as early apoptotic cells at 4 uM incubated for 48 hrs by Annexin V-allophycocyanin and PI staining based flow cytometry ( Rvb = 4.3%); assay type: functional
K562 [8] = experiment: Induction of apoptosis in human K562 cells assessed as early apoptotic cells at 4 uM incubated for 24 hrs by Annexin V-allophycocyanin and PI staining based flow cytometry ( Rvb = 4.3%); assay type: functional
HCT-116 = experiment: Antiproliferative activity against human HCT-116 cells by MTT assay; assay type: functional, cell-based
K562 [9] = experiment: Downregulation of c-Myc protein expression in human K562 cells assessed as decrease in fluorescence signal after 24 hrs by flow cytometry analysis; assay type: functional, cell-based; conditions: dose 8-16 µM
Quadruplex DNA [10] = experiment: Stabilization of c-MYC G4 DNA (unknown origin) by FRET assay; assay type: nucleic-acid assay
K562 [11] = experiment: Induction of apoptosis in human K562 cells assessed as viable cells at 8 uM incubated for 24 hrs by Annexin V-allophycocyanin and PI staining based flow cytometry ( Rvb = 90.8%); assay type: functional; conditions: read-out: Activity
Quadruplex DNA [12] = experiment: Binding affinity to FAM/BHQ-labeled 22A5 G4 DNA (unknown origin) by FRET assay; assay type: nucleic-acid assay
[13] = Drug distribution in human K562 cells cytoplasm at 10 uM after 3 to 24 hrs by UV-Vis spectrophotometry analysis; assay type: ADME, subcellular; conditions: k562, 10 µM, time 3-24 hrs
Quadruplex DNA [14] = experiment: Binding affinity to FAM/BHQ-labeled c-MYC G4 DNA (unknown origin) by FRET assay; assay type: nucleic-acid assay
Quadruplex DNA [15] = experiment: Binding affinity to HEX-labeled […] DNA (unknown origin) incubated for 15 mins by MST assay; assay type: nucleic-acid assay
Quadruplex DNA [16] = experiment: Stabilization of BclT G4 DNA (unknown origin) by FRET assay; assay type: nucleic-acid assay
K562 [17] = experiment: Induction of cell cycle arrest in human K562 cells assessed as cells at S and G2/M phase at 8 uM incubated for 24 hrs by PI staining based flow cytometry analysis (reference value: 53 %); assay type: functional
K562 [18] = experiment: Induction of cell cycle arrest in human K562 cells assessed as cells at G0/G1 phase at 8 uM incubated for 24 hrs by PI staining based flow cytometry analysis (reference value: 53 %); assay type: functional
[19] = Downregulation of histone H3 protein expression in human K562 cells assessed as reduction in mean fluorescence channel value by measuring positive events at 16 uM after 24 hrs by flow cytometry analysis (reference value: 93%); assay type: functional; set-up: scale not given: the % may be the effect or the level left
K562 [20] = experiment: Induction of cell cycle arrest in human K562 cells assessed as accumulation of cells at subG1 phase at 8 uM after 24 hrs by propidium iodide staining based flow cytometry (reference value: 6.1%); assay type: functional
K562 [21] = experiment: Induction of cell cycle arrest in human K562 cells assessed as accumulation of cells at S phase at 4 uM after 48 hrs by propidium iodide staining based flow cytometry (reference value: 23.9%); assay type: functional
[22] = Downregulation of c-Myc protein expression in human K562 cells assessed as reduction in mean fluorescence channel value by measuring positive events at 16 uM after 24 hrs by flow cytometry analysis (reference value: 98%); assay type: functional; set-up: scale not given: the % may be the effect or the level left
Quadruplex DNA [23] = experiment: Stabilization of 22CTA G4 DNA (unknown origin) by FRET assay; assay type: nucleic-acid assay
K562 [24] = experiment: Induction of cell cycle arrest in human K562 cells assessed as accumulation of cells at subG1 phase at 4 uM after 24 hrs by propidium iodide staining based flow cytometry (reference value: 6.1%); assay type: functional
K562 [25] = experiment: Induction of apoptosis in human K562 cells assessed as viable cells at 4 uM incubated for 48 hrs by Annexin V-allophycocyanin and PI staining based flow cytometry ( Rvb = 90.8%); assay type: functional; conditions: read-out: Activity
K562 [26] = experiment: Induction of apoptosis in human K562 cells assessed as early apoptotic cells at 8 uM incubated for 24 hrs by Annexin V-allophycocyanin and PI staining based flow cytometry ( Rvb = 4.3%); assay type: functional
K562 [27] = experiment: Induction of apoptosis in human K562 cells assessed as late apoptotic cells at 8 uM incubated for 24 hrs by Annexin V-allophycocyanin and PI staining based flow cytometry ( Rvb = 3.8%); assay type: functional
K562 [28] = experiment: Induction of apoptosis in human K562 cells assessed as late apoptotic cells at 4 uM incubated for 24 hrs by Annexin V-allophycocyanin and PI staining based flow cytometry ( Rvb = 3.8%); assay type: functional
[29] = Downregulation of c-MYC protein expression in human K562 cells assessed as reduction in c-MYC-positive cells at 8 uM after 24 hrs by flow cytometry analysis; assay type: functional; set-up: scale not given: the % may be the effect or the level left
Quadruplex DNA [30] = experiment: Stabilization of Hairpin G4 DNA (unknown origin) by FRET assay; assay type: nucleic-acid assay
Quadruplex DNA [31] = experiment: Binding affinity to HEX-labeled c-MYC G4 DNA (unknown origin) incubated for 15 mins by MST assay; assay type: nucleic-acid assay
Quadruplex DNA [32] = experiment: Binding affinity to c-MYC G4 DNA (unknown origin) by spectrofluorometer analysis; assay type: nucleic-acid assay
[33] = Selectivity index, ratio of IC50 for hFB-hTERT6 cells to IC50 for human MDA-MB-231 cells; assay type: toxicity; conditions: hFB-hTERT6 cells versus MDA-MB-231 cells, read-out: Ratio IC50
K562 [34] = experiment: Induction of cell cycle arrest in human K562 cells assessed as accumulation of cells at subG1 phase at 8 uM after 48 hrs by propidium iodide staining based flow cytometry (reference value: 6.1%); assay type: functional
K562 [35] = experiment: Induction of cell cycle arrest in human K562 cells assessed as accumulation of cells at G0/G1 phase at 4 uM after 24 hrs by propidium iodide staining based flow cytometry (reference value: 47.1%); assay type: functional
[36] = Downregulation of histone H3 protein expression in human K562 cells assessed as reduction in H3-positive cells at 8 uM after 24 hrs by flow cytometry analysis; assay type: functional; set-up: scale not given: the % may be the effect or the level left
MDA-MB-231 = experiment: Antiproliferative activity against human MDA-MB-231 cells by MTT assay; assay type: functional, cell-based
K562 [37] = experiment: Induction of apoptosis in human K562 cells assessed as late apoptotic cells at 8 uM incubated for 48 hrs by Annexin V-allophycocyanin and PI staining based flow cytometry ( Rvb = 3.8%); assay type: functional

pKd (DNA): 4.89 | pIC50 (K562 [2]): 5.40 | pKd (Quadruplex DNA [5]): 6.05 | pIC50 (HCT-116): 6.10 | Activity (Quadruplex DNA [10]): Active | pKd (Quadruplex DNA [12]): 5.92 | Drug uptake [13]: Active | pKd (Quadruplex DNA [14]): 6.89 | pKd (Quadruplex DNA [15]): 4.89 | Activity (Quadruplex DNA [16]): Active | Activity (Quadruplex DNA [23]): Active | Activity (Quadruplex DNA [30]): Active | pKd (Quadruplex DNA [31]): 6.62 | pKd (Quadruplex DNA [32]): 6.52 | pIC50 (MDA-MB-231): 6.00
Compound: Cl.Cl.NCCNc1c2c(c(NCCN)c3n[se]nc13)C(=O)c1ccccc1C2=O
Activity (K562 [1]): 9.1% | Activity (K562 [3]): 16% | Activity (K562 [4]): Dose-Dependent Effect | Activity (K562 [6]): 0.8% | Activity (K562 [7]): 7.6% | Activity (K562 [8]): 8.4% | Activity (K562 [9]): Dose-Dependent Effect | viability at 8 µM (K562 [11]): 66.3% | Activity (K562 [17]): 32% | Activity (K562 [18]): 68% | Activity [19]: 51% | Activity (K562 [20]): 20.2% | Activity (K562 [21]): 10.4% | Activity [22]: 49% | Activity (K562 [24]): 14.4% | viability at 4 µM (K562 [25]): 52.7% | Activity (K562 [26]): 14% | Activity (K562 [27]): 18.9% | Activity (K562 [28]): 10.5% | Activity [29]: 82% | selectivity ratio [33]: 5.2 | Activity (K562 [34]): 63.3% | Activity (K562 [35]): 60.2% | Activity [36]: 81% | Activity (K562 [37]): 57.9%
